Patent publication US20050044578A1, “Rat highly sensitive to carcinogen” (priority 2001, published 2005)

Experiments:
wild-type rats = assay: Sensitivity to hepatocarcinogenesis by diethyl nitrosamine, GST-P-positive foci in liver, wild-type rats; type: in vivo, rat; details: eight-week-old male, 200 mg/kg intraperitoneally, 20 weeks after the administration, per 1 cm^2
Procedure: (§1) The livers taken from each of the above-mentioned rats were fixed with acetone and embedded in paraffine, sliced, and then GST-P, a precancerous hepatic lesion marker, was immunostained for visualization (FIG. 4, left). Further, the number and the area of positive foci per unit area in the GST-P-positive foci were measured with an image analyzer (IPAP, Olympus) (FIG. 4, right).

transgenic rats = assay: Sensitivity to hepatocarcinogenesis by diethyl nitrosamine, GST-P-positive foci in liver, transgenic rats (mutant connexin 32); type: in vivo, rat; details: 200 mg/kg intraperitoneally
Procedure: as §1

[1] = transgenic rats, eight-week-old male, 20 weeks after the administration, liver, per 1 cm^2

SMILES: CCN(CC)N=O [diethyl nitrosamine]
- area of the GST-P-positive foci per unit area (1 cm^2) (wild-type rats): 0.2 mm^2
- number of the GST-P-positive foci per unit area (1 cm^2) (wild-type rats): 11.1
- sensitivity of the transgenic rats to the hepatocarcinogen (transgenic rats; transgenic rats in comparison to wild-type rats, 20 weeks): extremely high sensitivity
- area of the GST-P-positive foci per unit area (1 cm^2) (transgenic rats; [1]): 3.32 mm^2
- number of the GST-P-positive foci per unit area (1 cm^2) (transgenic rats; [1]): 79.8
